Source: ChEMBL document CHEMBL1128247, “Prediction of receptor properties and binding affinity of ligands to benzodiazepine/GABAA receptors using artificial neural networks” (J Med Chem, 1995)

Biological target: GABA-A receptor; anion channel
Test: Binding affinity towards benzodiazepine/GABA A receptor.
Format: protein-complex assay
Set-up: unit not given here

| Compound | Log IC50 |
| --- | --- |
| COCN1C(=O)CN=C(c2ccccc2)c2cc([N+](=O)[O-])ccc21 [MOTRAZEPAM] | -2.633 |
| CN1C(=O)CN=C(c2c(F)cccc2F)c2cc(Br)ccc21 | -0.38 |
| O=C1CN=C(c2ccccc2F)c2cc([N+](=O)[O-])ccc2N1 | -0.176 |
| O=C1CN=C(c2ccccc2)c2cc(Cl)ccc2N1CC(F)(F)F [HALAZEPAM] | -1.964 |
| CN1C(=O)CN=C(c2ccccc2)c2cc(N)ccc21 | -2.663 |
| Cc1ccc2c(c1)NC(=O)CN=C2c1ccccc1F | -1.279 |
| O=C1CN=C(c2ccccc2)c2cc(C(F)(F)F)ccc2N1 [RO-052904] | -1.114 |
| CN1C(=O)CN=C(c2ccccc2F)c2cc(N)ccc21 [7-AMINO-FLUNITRAZEPAM] | -1.813 |
| O=C1CN=C(c2c(Cl)cccc2Cl)c2cc(Cl)ccc2N1 [RO-223294] | -0.845 |
| CN1C(=O)CN=C(c2ccccc2F)c2cc(F)ccc21 | -0.708 |
| CN1C(=O)CN=C(c2ccccc2Cl)c2ccccc21 | -0.58 |
| CC(C)(C)N1C(=O)CN=C(c2ccccc2)c2cc(Cl)ccc21 | -2.792 |
| O=C1CN=C(c2ccccc2C(F)(F)F)c2cc([N+](=O)[O-])ccc2N1 | -0.544 |
| CCc1ccc2c(c1)C(c1ccccc1)=NCC(=O)N2 | -1.556 |
| CN1C(=O)CN=C(c2c(F)cccc2F)c2cc(Cl)ccc21 | -0.613 |
| O=C1CN=C(c2c(F)cccc2F)c2ccc(Cl)cc2N1 | -1.447 |
| CN1C(=O)CN=C(c2ccccc2)c2cc(C#N)ccc21 | -2.58 |
| O=C1CN=C(c2ccccc2F)c2cc(Cl)ccc2N1 | -0.301 |
| O=C1CN=C(c2c(F)cccc2F)c2cc(Cl)ccc2N1 | -0.204 |
| O=C1CN=C(c2ccccc2Cl)c2cc(Cl)ccc2N1 [DELORAZEPAM] | -0.255 |
| O=C1CN=C(c2ccccc2F)c2ccccc2N1 | -1.322 |
| O=C1CN=C(c2ccccc2)c2cc(F)ccc2N1 [RO-053061] | -1.602 |

| Compound | Log IC50 |
| --- | --- |
| O=C1CN=C(c2c(F)cccc2F)c2ccccc2N1 | -1.279 |
| CN1C(=O)CN=C(c2ccccc2Cl)c2cc([N+](=O)[O-])ccc21 [RO-054082] | -0.342 |
| O=C1CN=C(c2ccccc2)c2cc(Cl)ccc2N1 [NORDAZEPAM] | -0.973 |
| O=C1Nc2ccc(Cl)cc2C(c2ccccc2F)=NC1Cl (centres undefined) | -0.724 |
| CN1C(=O)C(O)N=C(c2ccccc2)c2cc(Cl)ccc21 (centres undefined) [TEMAZEPAM] | -1.204 |
| CN1C(=O)CN=C(c2ccccc2F)c2cc(I)ccc21 | -0.462 |
| CN1C(=O)CN=C(c2c(Cl)cccc2Cl)c2cc(Cl)ccc21 | -0.74 |
| O=C1CN=C(c2ccccc2)c2cc([N+](=O)[O-])ccc2N1 [NITRAZEPAM] | -1 |
| CC1N=C(c2ccccc2)c2cc(Cl)ccc2N(Cl)C1=O (centres undefined) | -1.69 |
| C=Cc1ccc2c(c1)C(c1ccccc1)=NCC(=O)N2 | -1.38 |
| CN1C(=O)CN=C(c2ccccc2F)c2ccccc21 [RO-054520] | -1.146 |
| O=Cc1ccc2c(c1)C(c1ccccc1)=NCC(=O)N2 | -1.633 |
| O=C1CN=C(c2ccccc2F)c2cc(F)ccc2N1 | -0.869 |
| [N-]=[N+]=Nc1ccc2c(c1)C(c1ccccc1F)=NCC(=O)N2 | -0.724 |
| Nc1ccc2c(c1)C(c1ccccc1)=NCC(=O)N2 [7-AMINO-NITRAZEPAM] | -2.587 |
| CN1C(=O)CN=C(c2ccccc2)c2cc(Cl)c(Cl)cc21 | -1.602 |
| CN1C(=O)CN=C(c2ccccc2)c2cc(F)ccc21 | -1.23 |
| O=C1CN=C(c2ccccc2Cl)c2cc([N+](=O)[O-])ccc2N1 [CLONAZEPAM] | -0.255 |
| CN1C(=O)CN=C(c2ccccc2F)c2cc(C#N)ccc21 | -1.477 |
| CN1C(=O)CN=C(c2ccccc2F)c2cc(NO)ccc21 | -1.982 |
| Nc1ccc2c(c1)C(c1ccccc1Cl)=NCC(=O)N2 [7-AMINOCLONAZEPAM] | -1.875 |
| CC(C)(C)N1C(=O)CN=C(c2ccccc2F)c2cc([N+](=O)[O-])ccc21 | -2.477 |
